Data set [1] can be described thus: Solubility testing in buffer (HPLC-UV of supernatant). The data set is classed as physicochemical.
For data set [2], the target named is T1, human GLP-1 receptor (hGLP-1 R) (Homo sapiens, UniProt P43220).
T1 construct: expressed in transfected cells
As to the kind of experiment: cAMP response of HEK-293 cells stably expressing human GLP-1 receptor (HTRF). The data set is classed as cell-based. The note with it: Table 7; cAMP formation. Summed up: (§1)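 Cells grown overnight in DMEM/10% FBS, detached with accutase, resuspended in HBSS with 20 mM HEPES, 0.1% BSA and 2 mM IBMX at 400000 cells/ml. Test compound added and incubated 30 minutes at room temperature; cellular cAMP then measured by HTRF.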

The target of data set [3] is T2, human glucagon receptor (hGLUC R) (Homo sapiens, UniProt P47871).
T2 construct: expressed in transfected cells
Briefly: cAMP response of HEK-293 cells stably expressing human glucagon receptor (HTRF). The data set is classed as cell-based. The note with it: Table 7; cAMP formation. Summed up:
as §1
(In general: Time-resolved FRET reads energy transfer from a long-lived donor to a nearby acceptor.)

The target in data set [4] is T3, human GIP receptor (hGIP R) (Homo sapiens, UniProt P48546).
T3 construct: expressed in transfected cells
T3 sequence (P48546 22-466): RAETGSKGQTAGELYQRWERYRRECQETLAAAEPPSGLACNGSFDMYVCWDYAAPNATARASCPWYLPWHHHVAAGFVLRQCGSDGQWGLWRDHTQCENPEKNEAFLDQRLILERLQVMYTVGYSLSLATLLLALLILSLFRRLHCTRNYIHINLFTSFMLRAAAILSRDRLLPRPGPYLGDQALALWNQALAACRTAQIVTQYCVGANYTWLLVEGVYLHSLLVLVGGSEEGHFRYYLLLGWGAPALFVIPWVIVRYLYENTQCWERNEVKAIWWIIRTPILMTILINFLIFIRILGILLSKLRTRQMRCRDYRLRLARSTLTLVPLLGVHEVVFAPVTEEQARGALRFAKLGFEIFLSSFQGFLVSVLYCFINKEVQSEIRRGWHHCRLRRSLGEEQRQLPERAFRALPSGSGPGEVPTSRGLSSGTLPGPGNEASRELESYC
As to the kind of experiment: cAMP response of HEK-293 cells stably expressing human GIP receptor (HTRF). The data set is classed as cell-based. The note with it: Table 7; cAMP formation. Summed up: as §1

Where [5] appears, read: pH 4.5, target concentration 1.0 mg/mL, read-out: Solubility (pH 4.5).
Setting [6] is: pH 7.4, target concentration 1.0 mg/mL, read-out: Solubility (pH 7.4).

Each structure is given as a SMILES string. In brackets after ≈: the same amount, converted by molar mass. Like-named read-outs stand apart in the source and are kept apart here. *1 amine or outer side, *2 acyl side, *3 side chain or, on linkers, in order; H or OH if unused. Where a SMILES comes first, the peptide text is derived from it. Side-chain parts run from the residue outwards. [ ]: non-standard residue; d: D form. The star is where a group is joined. γGlu = O=C(O)[C@H](CCC(=O)[*:2])N[*:1]; Stearoyl = CCCCCCCCCCCCCCCCCC(=O)*; Palmitoyl = CCCCCCCCCCCCCCCC(=O)*; Aib = CC(C)(N)C(=O)O

T1 sequence (P43220 24-463): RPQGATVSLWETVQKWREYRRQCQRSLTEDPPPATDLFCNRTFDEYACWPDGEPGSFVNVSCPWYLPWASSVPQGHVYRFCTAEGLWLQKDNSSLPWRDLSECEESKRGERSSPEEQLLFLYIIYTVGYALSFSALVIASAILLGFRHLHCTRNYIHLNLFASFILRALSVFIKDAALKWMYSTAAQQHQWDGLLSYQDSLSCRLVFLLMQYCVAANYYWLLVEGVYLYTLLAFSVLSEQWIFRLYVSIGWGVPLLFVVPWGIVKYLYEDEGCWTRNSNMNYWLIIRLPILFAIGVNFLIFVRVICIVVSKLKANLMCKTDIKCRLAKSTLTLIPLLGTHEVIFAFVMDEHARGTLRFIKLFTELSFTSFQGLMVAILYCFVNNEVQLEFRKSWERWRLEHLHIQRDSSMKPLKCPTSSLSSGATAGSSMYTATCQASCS
T2 sequence (P47871 26-477): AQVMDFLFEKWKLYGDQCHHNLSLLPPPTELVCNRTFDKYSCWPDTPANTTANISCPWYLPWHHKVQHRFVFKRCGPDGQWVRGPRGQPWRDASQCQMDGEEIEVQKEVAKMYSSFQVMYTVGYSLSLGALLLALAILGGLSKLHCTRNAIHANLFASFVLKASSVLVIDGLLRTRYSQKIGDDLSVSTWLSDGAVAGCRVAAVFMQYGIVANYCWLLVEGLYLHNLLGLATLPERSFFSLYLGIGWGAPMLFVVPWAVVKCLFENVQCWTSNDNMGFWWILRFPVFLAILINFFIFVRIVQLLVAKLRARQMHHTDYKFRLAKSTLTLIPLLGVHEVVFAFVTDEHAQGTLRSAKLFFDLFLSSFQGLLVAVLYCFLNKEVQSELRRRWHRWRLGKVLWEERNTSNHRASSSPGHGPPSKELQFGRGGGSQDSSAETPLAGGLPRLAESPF

For the molecule `CCCCCCCCCCCCCCCC(=O)N[C@@H](CCC(=O)NCCCC[C@H](NC(=O)[C@H](CCC(N)=O)NC(=O)[C@@H](NC(=O)[C@H](CO)NC(=O)[C@H](CC(C)C)NC(=O)[C@H](CC(=O)O)NC(=O)[C@H](CO)NC(=O)[C@@H](NC(=O)[C@H](Cc1ccccc1)NC(=O)[C@@H](NC(=O)CNC(=O)[C@H](CCC(N)=O)NC(=O)C(C)(C)NC(=O)[C@@H](N)Cc1ccc(O)cc1)[C@@H](C)O)[C@@H](C)O)[C@@H](C)CC)C(=O)N[C@@H](CCC(=O)O)C(=O)N[C@@H](CCCCN)C(=O)N[C@@H](CCCNC(=N)N)C(=O)N[C@@H](C)C(=O)N[C@H](C(=O)NC(C)(C)C(=O)N[C@@H](CC(C)C)C(=O)N[C@@H](Cc1ccccc1)C(=O)N[C@H](C(=O)N[C@@H](CCC(=O)O)C(=O)N[C@@H](Cc1c[nH]c2ccccc12)C(=O)N[C@@H](CC(C)C)C(=O)N[C@@H](CCCCN)C(=O)N[C@@H](C)C(=O)NCC(=O)NCC(=O)N1CCC[C@H]1C(=O)N[C@@H](CO)C(=O)N[C@@H](CO)C(=O)NCC(=O)N[C@@H](C)C(=O)N1CCC[C@H]1C(=O)N1CCC[C@H]1C(=O)N1CCC[C@H]1C(=O)N[C@@H](CO)C(N)=O)[C@@H](C)CC)C(C)C)C(=O)O` [SEQ ID NO: 24, Y-Aib-Q-G-T-F-T-S-D-L-S-I-Q-K(yE-x53)-E-K-R-A-V-Aib-L-F-I-E-W-L-K-A-G-G-P-S-S-G-A-P-P-P-S-NH2] (H-Y[Aib]QGTFTSDLSIQK([γGlu-Palmitoyl])EKRAV[Aib]LFIEWLKAGGPSSGAPPPS-NH2), the solubility (as a rule, the concentration that dissolves in the medium under given conditions) at 2 h in data set [1] (setting [5]) is greater than 1000 µg/mL; in data set [1] (setting [6]) it was 976 µg/mL (≈ 217 µM). Besides, the EC50 (usually the concentration giving half of the maximal effect) in data set [2] is 19.2 pM; in data set [3], 284 pM; in data set [4] it was 10.4 pM.
On to `CCCCCCCCCCCCCCCCCC(=O)N[C@@H](CCC(=O)NCCCC[C@H](NC(=O)[C@H](CCC(N)=O)NC(=O)[C@@H](NC(=O)[C@H](CO)NC(=O)[C@H](CC(C)C)NC(=O)[C@H](CC(=O)O)NC(=O)[C@H](CO)NC(=O)[C@@H](NC(=O)[C@H](Cc1ccccc1)NC(=O)[C@@H](NC(=O)CNC(=O)[C@H](CCC(=O)O)NC(=O)C(C)(C)NC(=O)[C@@H](N)Cc1ccc(O)cc1)[C@@H](C)O)[C@@H](C)O)[C@@H](C)CC)C(=O)N[C@@H](CCC(=O)O)C(=O)N[C@@H](CO)C(=O)N[C@@H](CCCCN)C(=O)N[C@@H](C)C(=O)N[C@@H](C)C(=O)N[C@@H](CCC(N)=O)C(=O)N[C@@H](CCC(=O)O)C(=O)N[C@@H](Cc1ccccc1)C(=O)N[C@H](C(=O)N[C@@H](CCC(=O)O)C(=O)N[C@@H](Cc1c[nH]c2ccccc12)C(=O)N[C@@H](CC(C)C)C(=O)N[C@@H](CCCCN)C(=O)N[C@@H](C)C(=O)NCC(=O)NCC(=O)N1CCC[C@H]1C(=O)N[C@@H](CO)C(=O)N[C@@H](CO)C(=O)NCC(=O)N[C@@H](C)C(=O)N1CCC[C@H]1C(=O)N1CCC[C@H]1C(=O)N1CCC[C@H]1C(=O)N[C@@H](CO)C(N)=O)[C@@H](C)CC)C(=O)O` [SEQ ID NO: 42, Y-Aib-E-G-T-F-T-S-D-L-S-I-Q-K(yE-x70)-ESKAAQEFIEWLKAGGPSSGAPPPS-NH2] (H-Y[Aib]EGTFTSDLSIQK([γGlu-Stearoyl])ESKAAQEFIEWLKAGGPSSGAPPPS-NH2), for which the solubility at 2 h in data set [1] (setting [5]) is greater than 1000 µg/mL; in data set [1] (setting [6]), 936 µg/mL (≈ 208 µM). Also, the EC50 is 6.2 pM in data set [2], 8470 pM in data set [3] and 12.9 pM in data set [4].
Turning to `CCCCCCCCCCCCCCCC(=O)N[C@@H](CCC(=O)NCCCC[C@H](NC(=O)[C@H](CCC(N)=O)NC(=O)[C@@H](NC(=O)[C@H](CO)NC(=O)[C@H](CC(C)C)NC(=O)[C@H](CC(=O)O)NC(=O)[C@H](CO)NC(=O)[C@@H](NC(=O)[C@H](Cc1ccccc1)NC(=O)[C@@H](NC(=O)CNC(=O)[C@H](CCC(N)=O)NC(=O)C(C)(C)NC(=O)[C@@H](N)Cc1ccc(O)cc1)[C@@H](C)O)[C@@H](C)O)[C@@H](C)CC)C(=O)N[C@@H](CC(=O)O)C(=O)N[C@@H](CCCCN)C(=O)N[C@@H](CCCNC(=N)N)C(=O)N[C@@H](CCCNC(=N)N)C(=O)N[C@@H](C)C(=O)N[C@@H](CCC(N)=O)C(=O)N[C@@H](CC(=O)O)C(=O)N[C@@H](Cc1ccccc1)C(=O)N[C@H](C(=O)N[C@@H](CCC(=O)O)C(=O)N[C@@H](Cc1c[nH]c2ccccc12)C(=O)N[C@@H](CC(C)C)C(=O)N[C@@H](CCCCN)C(=O)N[C@@H](C)C(=O)NCC(=O)NCC(=O)N1CCC[C@H]1C(=O)N[C@@H](CO)C(=O)N[C@@H](CO)C(=O)NCC(=O)N[C@@H](C)C(=O)N1CCC[C@H]1C(=O)N1CCC[C@H]1C(=O)N1CCC[C@H]1C(=O)N[C@@H](CO)C(N)=O)[C@@H](C)CC)C(=O)O` [SEQ ID NO: 53, Y-Aib-Q-G-T-F-T-S-D-L-S-I-Q-K(yE-x53)-DKRRAQDFIEWLKAGGPSSGAPPPS-NH2] (H-Y[Aib]QGTFTSDLSIQK([γGlu-Palmitoyl])DKRRAQDFIEWLKAGGPSSGAPPPS-NH2), the values for the solubility at 2 h in data set [1] (setting [5]) and in data set [1] (setting [6]) were 932 µg/mL (≈ 203 µM) and 958 µg/mL (≈ 209 µM), respectively. For the same molecule, the EC50 came out at 13.6 pM in data set [2], 7.9 pM in data set [3] and 93.2 pM in data set [4].
Consider `CCCCCCCCCCCCCCCC(=O)N[C@@H](CCC(=O)NCCCC[C@H](NC(=O)[C@H](CCC(N)=O)NC(=O)[C@H](CCCCN)NC(=O)[C@H](CO)NC(=O)[C@H](CC(C)C)NC(=O)[C@H](CC(=O)O)NC(=O)[C@H](CO)NC(=O)[C@@H](NC(=O)[C@H](Cc1ccccc1)NC(=O)[C@@H](NC(=O)CNC(=O)[C@H](CCC(N)=O)NC(=O)C(C)(C)NC(=O)[C@@H](N)Cc1ccc(O)cc1)[C@@H](C)O)[C@@H](C)O)C(=O)N[C@@H](CCC(=O)O)C(=O)N[C@@H](CO)C(=O)N[C@@H](CCCCN)C(=O)N[C@@H](C)C(=O)N[C@@H](C)C(=O)N[C@@H](CCC(N)=O)C(=O)N[C@@H](CCC(=O)O)C(=O)N[C@@H](Cc1ccccc1)C(=O)N[C@H](C(=O)N[C@@H](CCC(=O)O)C(=O)N[C@@H](Cc1c[nH]c2ccccc12)C(=O)N[C@@H](CC(C)C)C(=O)N[C@@H](CCCCN)C(=O)N[C@@H](C)C(=O)NCC(=O)NCC(=O)N1CCC[C@H]1C(=O)N[C@@H](CO)C(=O)N[C@@H](CO)C(=O)NCC(=O)N[C@@H](C)C(=O)N1CCC[C@H]1C(=O)N1CCC[C@H]1C(=O)N1CCC[C@H]1C(=O)N[C@@H](CO)C(N)=O)[C@@H](C)CC)C(=O)O` [SEQ ID NO: 40, Y-Aib-Q-G-T-F-T-S-D-L-S-K-Q-K(yE-x53)-ESKAAQEFIEWLKAGGPSSGAPPPS-NH2] (H-Y[Aib]QGTFTSDLSKQK([γGlu-Palmitoyl])ESKAAQEFIEWLKAGGPSSGAPPPS-NH2), for which the values for the solubility at 2 h in data set [1] (setting [5]) and in data set [1] (setting [6]) were 986 µg/mL (≈ 220 µM) and 993 µg/mL (≈ 222 µM), respectively. For the same molecule, the figures for the EC50 in data set [2], in data set [3] and in data set [4] were 5.5 pM, 22.6 pM and 53.6 pM, respectively.
